Assays:
[1] = healthy young or old adults; cited from earlier work
[2] = after HMB is fed; cited from earlier work
[3] = pH of HMBFA and buffered HMBFA; format: physicochemical
Text: In most instances, the HMB utilized in clinical studies and marketed as an ergogenic aid has been in the calcium salt form. Recent advances have allowed the HMB to be manufactured in a free acid form for use human and animal uses, and preferably as a nutritional supplement or incorporated into foodstuffs. […] The pH of HMBFA is <3.
Preparation of Buffered HMB in the Free Acid Form (HMBFA) Briefly, 400 g HMBFA (TSI lot 12111036) was weigh into a one liter beaker and then 37.8 g of with potassium carbonate (K2CO3) was added to the HMBFA. A stir bar was added and the mixture was stirred for 60 h. The resulting pH was approximately 4.5. Alternatively, the reaction may be accelerated by mixing water (35 g) with potassium carbonate (37) g and then adding HMBFA (400 g).

| Compound | side effects [1] | loss of HMB to urine [2] | pH [3] |
| --- | --- | --- | --- |
| CC(C)(O)CC(=O)O [HMB, β-hydroxy-β-methylbutyrate] | no side effects | 20-50% | – |
| CC(C)(O)CC(=O)O [HMBFA, β-hydroxy-β-methylbutyrate] | – | – | < 3 |
